Test results reported in publication PMC11949107, “Polyunsaturated fatty acids and their endocannabinoid-related metabolites activity at human TRPV1 and TRPA1 ion channels expressed in HEK-293 cells” (PeerJ, 2025).
Several values for one entry are separate records, joined by “and”; a condition that tells them apart may be missing. Identical values can stand only once.

Key:
human TRPV1 [1] = target: T1, human TRPV1 (Homo sapiens, UniProt Q8NER1); assay: Calcium 5 dye [Ca]i assay in HEK-293 Flp-In T-REx cells expressing TRPV1 (agonist response); format: cell-based; details: for Change in Ca5 fluorescence, individual experiments (CRC raw data): TRPV1 cells
T1 construct: Life Technologies (cells); host or cells: Flp-In T-REx HEK-293
Method in brief: (§1)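 Tetracycline-induced (1 µg ml^−1, 4 h) HEK-293 T-REx cells loaded with Calcium 5 dye plus 1.25 mM probenecid for 1 h; agonist added after 1 min baseline (0.1% DMSO final), fluorescence (485/525 nm) read every 2 s for 5 min at 37 °C. Response as % change from baseline, solvent-subtracted; EC50/Emax from three-parameter logistic fit, given as pEC50.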

human TRPA1 = target: T2, human TRPA1 (Homo sapiens, UniProt O75762); assay: Calcium 5 dye [Ca]i assay in HEK-293 Flp-In T-REx cells expressing TRPA1 (agonist response); format: cell-based; details: for [Ca]i response (change in fluorescence), individual replicates: sheet Figure 4
T2 construct: Life Technologies (cells); host or cells: Flp-In T-REx HEK-293
Method in brief: as §1

HEK-293 EV cells = assay: Calcium 5 dye [Ca]i assay in HEK-293 empty vector (EV) cells; format: cell-based, human; details: 10 µM; HEK-293 EV cells; percentage of predrug baseline
Method in brief: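 Tetracycline at 1 µg ml^−1 was added 4 h before testing; cells were loaded with Calcium 5 dye for 1 h and read at 37 °C, with drug added after 1 min baseline (final 0.1% DMSO). The response was the % change from the 60 s baseline after solvent subtraction, and EC50/Emax came from a three-parameter logistic fit, reported as pEC50.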

human TRPV1 [2] = target: T1, human TRPV1; assay: Pre-incubation with PUFAs or capsazepine, then capsaicin (10 nM) response in HEK-293 TRPV1 cells; format: cell-based
Protocol: Intracellular calcium [Ca]i levels were assessed using the calcium 5 kit from Molecular Devices (# R8186, Sunnyvale, CA, USA) on a FlexStation 3 Microplate Reader (Molecular Devices, Sunnyvale, CA, USA). […] Probenecid (cat # 50027; Biotium) which helps to prevent expulsion of calcium indicator from the cells was added to a final concentration of 1.25 mM. 90 µL of the dye were loaded into each well of the plate and incubated for 1 h before reading in the FlexStation 3 at 37 °C. Fluorescence was recorded every 2 s (λ excitation = 485 nm, λ emission = 525 nm) for 5 min. After 1 min of baseline recording, 20 µL of the drug, dissolved in HBSS with 1% dimethyl sulfoxide (DMSO) (cat # D2650; Sigma-Aldrich, Melbourne, Australia) was added (final DMSO concentration was 0.1% in well). […]

human TRPV1 [3] = target: T1, human TRPV1; assay: PMA (phorbol ester) potentiation of TRPV1 responses in HEK-293 TRPV1 cells; format: cell-based; design: key to Drugs alone, individual experiments: change in [Ca]i as % of pre-drug baseline

T1 sequence (Q8NER1 whole entry): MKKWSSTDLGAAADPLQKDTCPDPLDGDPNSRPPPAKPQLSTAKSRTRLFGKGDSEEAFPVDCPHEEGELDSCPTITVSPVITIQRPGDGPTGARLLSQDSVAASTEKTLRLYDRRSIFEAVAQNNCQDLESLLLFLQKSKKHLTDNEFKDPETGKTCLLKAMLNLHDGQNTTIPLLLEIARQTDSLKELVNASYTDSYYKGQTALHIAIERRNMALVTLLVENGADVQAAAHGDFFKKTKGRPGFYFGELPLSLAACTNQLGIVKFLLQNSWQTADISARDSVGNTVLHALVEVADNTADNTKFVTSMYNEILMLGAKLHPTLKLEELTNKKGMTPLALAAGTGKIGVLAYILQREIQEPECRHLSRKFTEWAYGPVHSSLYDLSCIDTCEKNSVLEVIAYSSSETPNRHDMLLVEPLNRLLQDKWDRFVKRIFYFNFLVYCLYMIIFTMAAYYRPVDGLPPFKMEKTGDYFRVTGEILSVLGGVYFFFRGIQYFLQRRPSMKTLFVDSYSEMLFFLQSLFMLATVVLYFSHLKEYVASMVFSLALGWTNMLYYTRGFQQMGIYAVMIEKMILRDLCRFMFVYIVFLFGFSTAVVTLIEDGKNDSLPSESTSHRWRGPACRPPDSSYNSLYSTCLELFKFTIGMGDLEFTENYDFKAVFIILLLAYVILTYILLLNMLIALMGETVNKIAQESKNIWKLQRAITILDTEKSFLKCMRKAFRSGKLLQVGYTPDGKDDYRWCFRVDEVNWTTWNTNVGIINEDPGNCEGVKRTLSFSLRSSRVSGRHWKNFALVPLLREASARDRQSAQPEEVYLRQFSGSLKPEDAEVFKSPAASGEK
T2 sequence (O75762 whole entry): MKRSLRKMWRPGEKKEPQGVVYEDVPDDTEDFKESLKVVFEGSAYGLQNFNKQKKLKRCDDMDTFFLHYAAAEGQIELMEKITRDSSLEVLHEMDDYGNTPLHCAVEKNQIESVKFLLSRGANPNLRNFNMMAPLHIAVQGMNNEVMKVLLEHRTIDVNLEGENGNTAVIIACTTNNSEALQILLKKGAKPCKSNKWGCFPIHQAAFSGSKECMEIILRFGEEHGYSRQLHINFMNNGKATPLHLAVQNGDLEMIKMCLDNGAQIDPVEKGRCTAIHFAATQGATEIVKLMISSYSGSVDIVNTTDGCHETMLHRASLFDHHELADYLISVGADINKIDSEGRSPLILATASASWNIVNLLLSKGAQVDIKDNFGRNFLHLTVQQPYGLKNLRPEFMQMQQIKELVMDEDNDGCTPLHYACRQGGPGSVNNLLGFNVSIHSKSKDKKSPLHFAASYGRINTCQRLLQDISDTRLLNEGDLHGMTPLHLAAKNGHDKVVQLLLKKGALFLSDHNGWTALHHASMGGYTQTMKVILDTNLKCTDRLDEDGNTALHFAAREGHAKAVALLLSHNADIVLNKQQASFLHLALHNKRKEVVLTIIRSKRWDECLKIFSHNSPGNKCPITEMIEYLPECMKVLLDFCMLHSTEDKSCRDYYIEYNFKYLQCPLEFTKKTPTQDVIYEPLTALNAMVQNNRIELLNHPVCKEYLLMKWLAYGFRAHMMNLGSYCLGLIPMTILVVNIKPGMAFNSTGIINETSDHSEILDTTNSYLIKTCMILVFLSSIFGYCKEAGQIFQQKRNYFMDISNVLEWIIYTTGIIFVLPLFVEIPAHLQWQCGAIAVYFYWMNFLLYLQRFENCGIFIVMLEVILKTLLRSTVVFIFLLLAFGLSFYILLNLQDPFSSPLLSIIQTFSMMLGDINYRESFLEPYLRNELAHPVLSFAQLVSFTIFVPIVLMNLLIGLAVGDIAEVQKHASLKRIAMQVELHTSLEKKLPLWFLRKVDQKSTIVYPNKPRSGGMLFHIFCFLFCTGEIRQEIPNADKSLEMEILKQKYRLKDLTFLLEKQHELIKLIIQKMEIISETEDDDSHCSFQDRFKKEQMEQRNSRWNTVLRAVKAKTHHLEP

## CC/C=C\C/C=C\C/C=C\C/C=C\C/C=C\C/C=C\CCC(=O)O [DHA, docosahexaenoic acid]
Human TRPV1 [1]; 10 µM
  Elevation of [Ca]i in HEK-293 TRPV1 cells compared with HEK-293 EV cells: did not produce a notable change
Human TRPV1 [1]; 10 µM, HEK-293 TRPV1 cells, percentage of predrug baseline
  Change of Ca5 fluorescence, Mean ± SEM, TRPV1 (10 µM): 11 ± 2%
Human TRPV1 [1]; HEK293, read-out: Emax ± SEM % TRPV1 (30 µM)
  Emax at 30 µM: 29 ± 0.8%
Human TRPV1 [1]; log concentration -4.52288 (M)
  Change in Ca5 fluorescence, individual experiments (CRC raw data): 30.4293 and 29.6434 and 28.2029 and 25.9718 and 28.1927 and 31.4702
Human TRPV1 [1]; log concentration -5 (M)
  Change in Ca5 fluorescence, individual experiments (CRC raw data): 15.398 and 14.8517 and 2.207 and 13.9869 and 10.4035 and 11.2548
Human TRPV1 [1]; log concentration -5.52288 (M)
  Change in Ca5 fluorescence, individual experiments (CRC raw data): 5.597 and 6.862 and 1.798 and 7.576
Human TRPV1 [1]; log concentration -6 (M)
  Change in Ca5 fluorescence, individual experiments (CRC raw data): 1.539 and 8.081 and 1.374 and 8.45 and 6.148 and 5.676
Human TRPV1 [1]; log concentration -6.52288 (M)
  Change in Ca5 fluorescence, individual experiments (CRC raw data): 0.111 and 3.665 and 0.7828 and 7.557
Human TRPV1 [1]; log concentration -7 (M)
  Change in Ca5 fluorescence, individual experiments (CRC raw data): 8.793 and 7.902 and 1.12 and 9.145
Human TRPA1; 10 µM (cinnamaldehyde 300 µM)
  Elevation of [Ca]i in HEK-293 TRPA1 cells compared with HEK-293 EV cells: did not produce a change
Human TRPA1; 10 µM, HEK-293 TRPA1 cells, percentage of predrug baseline
  Change of Ca5 fluorescence, Mean ± SEM, TRPA1 (10 µM): 129 ± 81%
Human TRPA1; 30 µM
  TRPA1 activation at the highest concentration tested: activated TRPA1
Human TRPA1; HEK293, read-out: Emax ± SEM % TRPA1 (30 µM), highest tested concentration (30 µM) or derived from concentration-response curves (cinnamaldehyde)
  Emax at 30 µM: 408 ± 54%
Human TRPA1; concentration -4.52288 (log)
  [Ca]i response (change in fluorescence), individual replicates: 600.618 and 528.86 and 310.75 and 311.859 and 419.884 and 278.355
Human TRPA1; concentration -5 (log)
  [Ca]i response (change in fluorescence), individual replicates: 508.031 and 185.633 and 12.6409 and 8.196 and 18.5259 and 39.1466
Human TRPA1; concentration -5.52288 (log)
  [Ca]i response (change in fluorescence), individual replicates: 5.528 and 1.551 and 4.973 and 2.123
Human TRPA1; concentration -6 (log)
  [Ca]i response (change in fluorescence), individual replicates: 3.48 and 2.006 and 3.985 and 2.738 and 3.1287 and 4.255
Human TRPA1; concentration -6.52288 (log)
  [Ca]i response (change in fluorescence), individual replicates: 7.112 and 0.3749 and 2.033 and 5.1389
Human TRPA1; concentration -7 (log)
  [Ca]i response (change in fluorescence), individual replicates: 8.809 and 1.203 and 5.563 and 5.621
HEK-293 EV cells
  Change of Ca5 fluorescence, Mean ± SEM, EV (10 µM): 11 ± 2%
Human TRPV1 [2]; 10 µM, 5 min exposure, then capsaicin 10 nM
  Effect of pre-treatment on the capsaicin response: did not affect
Human TRPV1 [2]; capsaicin 10 nM after 5 min drug 10 µM, TRPV1 cells
  Post-capsaicin: response to subsequent capsaicin addition, individual experiments: 262.478 and 230.552 and 119.965 and 325.766 and 236.554 and 370.087
Human TRPV1 [2]; drug 10 µM for 5 min, TRPV1 cells
  Pre-capsaicin: response to first drug, individual experiments: 15.3316 and 14.4172 and 9.221 and 4.601 and 11.1415 and 4.871
Human TRPV1 [3]; PMA 100 nM, 5 min pretreatment
  TRPV1 response after exposure to PMA: only observed when a phorbol ester was present
Human TRPV1 [3]; PUFA 10 µM after PMA 100 nM for 5 min, response to PMA alone subtracted
  Drugs post-PMA, individual experiments: 50.0906 and 48.3811 and 19.3352 and 66.6517 and 32.7216 and 44.0204 and 2.991
Human TRPV1 [3]; PUFA 10 µM without PMA pretreatment, TRPV1 cells
  Drugs alone, individual experiments: 3.985 and 5.867 and 0 and 3.833 and 0.4866 and -0.286 and 0.9124 and 2.207
